Literature values as cited in patent US9861098B2, “Method for producing agrichemical-containing resin composition” (Nippon Soda Co., Ltd., priority 2008, dated 2018).
Where two headings read alike, the source gives them in different places.

Structure (SMILES) | water solubility (20° C.) | water solubility (25° C.)
COP(=O)(NC(C)=O)SC (stereo not drawn) [acephate] | 790000 ppm | 
C/C(=N\C#N)N(C)Cc1ccc(Cl)nc1 [acetamiprid] |  | 4250 ppm
CNC(=O)Oc1cccc2c1OC(C)(C)O2 [bendiocarb] | 280 ppm | 
CN/C(=N\[N+](=O)[O-])NCc1cnc(Cl)s1 [clothianidin] | 327 ppm | 
CCSCc1ccccc1OC(=O)NC [ethiofencarb] | 1800 ppm | 
CNC(=O)ON=C(C)SC [methomyl] | 58000 ppm | 
CCN(Cc1ccc(Cl)nc1)/C(=C/[N+](=O)[O-])NC [nitenpyram] | 590000 ppm | 
N#C/N=C1\SCCN1Cc1ccc(Cl)nc1 [thiacloprid] | 185 ppm | 
CN1COCN(Cc2cnc(Cl)s2)/C1=N\[N+](=O)[O-] [thiamethoxam] | 4100 ppm | 
